Laboratory results: patent publication US8802711B2, “TRPV1 antagonists” (AbbVie Inc., priority 2011, dated 2014)
pIC50: −log10 of the molar value.

Legend:
[1] = molecular target: T1, human TRPV1 receptor (hTRPV1) (Homo sapiens (Human), UniProt Q8NER1); assay: Acid activation assay (pH 5.0, FLIPR intracellular Ca2+); type: cell-based; settings: Table 1, 37.5 μM antagonist, percentage of the maximal pH 5.0-induced response remaining; for remaining activity at 37.5 µM: read-out: hTRPV1 H+ (max % remain)
Protocol: Dulbecco's modified Eagle's medium (DMEM) with 4.5 mg/mL D-glucose, fetal bovine serum, L-glutamine, and 2-morpholinoethanesulfonic acid (MES) were purchased from Sigma-Aldrich Co. (St. Louis, Mo.). Dulbecco's phosphate-buffered saline (DPBS) with Ca^2+, Mg^2+, and 1 mg/mL D-glucose (pH 7.4), Geneticin®, 0.25% trypsin-1 mM EDTA, and penicillin-streptomycin were purchased from Invitrogen Corp. (Carlsbad, Calif.). The FLIPR® Calcium 4 assay kit was purchased from Molecular Devices (Sunnyvale, Calif.).
The cDNAs for the human TRPV1 receptor (hTRPV1) were isolated by reverse transcriptase-polymerase chain reaction (RT-PCR) from human small intestine poly A+RNA supplied by Clontech (Palo Alto, Calif.) using primers designed surrounding the initiation and termination codons identical to the published sequences (Hayes et al. Pain 2000, 88, 205-215). The resulting cDNA PCR products were subcloned into pCIneo mammalian expression vector (Promega) and fully sequenced using fluorescent dye-terminator reagents (Prism, Perkin-Elmer Applied Biosystems Division) and a Perkin-Elmer Applied Biosystems Model 373 DNA sequencer or Model 310 genetic analyzer. Expression plasmids encoding the hTRPV1 cDNA were transfected individually into 1321N1 human astrocytoma cells using Lipofectamine. Forty-eight hours after transfection, the neomycin-resistant cells were selected with growth medium containing 800 μg/mL Geneticin (Gibco BRL). Surviving individual colonies were isolated and screened for TRPV1 receptor activity. Cells expressing recombinant homomeric TRPV1 receptors were maintained at 37° C. in DMEM containing 4 mM L-glutamine, 300 μg/mL G418 (Cal-biochem) and 10% fetal bovine serum under a humidified 5% CO2 atmosphere.
The functional activity of compounds at the TRPV1 receptor was determined by measurement of intracellular Ca^2+ levels ([Ca^2+]i) using the Fluorescence Imaging Plate Reader (FLIPR)^TETRA®. All compounds were tested over a 12-point one-half-log concentration range. Compound stocks, 10 mM, were prepared in DMSO, and diluted serially across a 384-well plate using a Bravo BenchCel workstation (Agilent Technologies, Santa Clara, Calif.).
On the day of the experiment growth medium was removed, and the no-wash FLIPR® Calcium-4 dye (λEX=470-495 nm, λEM=515-575 nm) was added to each well using the Multidrop® dispenser. Cells were incubated for 90-120 minutes in the dark at 25° C. Test compounds were dissolved in DMSO, and plates were prepared using an Agilent Bravo workstation (Agilent Technologies Inc., Santa Clara, Calif.). Compounds were added to the cells 3 minutes prior to the addition of a pH 5.0 solution. Reagents were delivered at a rate of 40 μL/sec, and the final assay volume was 80 μL. Acidic pH solutions were prepared by titration of DPBS/MES with 1 N HCl. The intensity of the fluorescence was captured and digitally transferred to an interfaced PC.

[2] = molecular target: T1, human TRPV1 receptor (hTRPV1); assay: Capsaicin activation assay (FLIPR intracellular Ca2+); type: cell-based; settings: Table 1; inhibition of capsaicin-induced intracellular Ca2+ increase, HEK293 cells expressing human TRPV1; read-out: hTRPV1 cap IC50
Protocol: Dulbecco's modified Eagle medium (D-MEM) (with 4.5 mg/mL glucose) and fetal bovine serum were obtained from Hyclone Laboratories, Inc. (Logan, Utah). Dulbecco's phosphate-buffered saline (D-PBS) (with 1 mg/mL glucose and 3.6 mg/l Na pyruvate, without phenol red), L-glutamine, hygromycin B, and Lipofectamine® were obtained from Life Technologies (Grand Island, N.Y.). G418 sulfate was obtained from Calbiochem-Novabiochem Corp. (San Diego, Calif.). Capsaicin (8-methyl-N-vanillyl-6-nonenamide) was obtained from Sigma-Aldrich, Co. (St. Louis, Mo.). Fluo-4 AM (N-[4-[6-[(acetyloxy)methoxy]-2,7-difluoro-3-oxo-3H-xanthen-9-yl]-2-[2-[2-[bis[2-[(acetyloxy)methoxy]-2-oxyethyl]amino]-5-methyl phenoxy]ethoxy]phenyl]-N-[2-[(acetyloxy)methoxy]-2-oxyethyl]-glycine, (acetyloxy)methyl ester) was purchased from Molecular Probes (Eugene, Oreg.). […]
The functional activity of compounds at the TRPV1 receptor was determined by measurement of intracellular Ca^2+ levels ([Ca^2+]i) using the Fluorescence Imaging Plate Reader (FLIPR)^TETRA®. All compounds were tested over a 12-point one-third-log concentration range. Compound stocks, 10 mM, were prepared in DMSO, and diluted serially across a 384-well plate using a Bravo BenchCel workstation (Agilent Technologies, Santa Clara, Calif.). A stock concentration of capsaicin (10 mM) was made in DMSO, and diluted in D-PBS to a final concentration of 200 nM (4×). On the day prior to the experiment, recombinant HEK293 cells that stably express human TRPV1 were removed from tissue culture flasks and plated in growth medium into black-walled clear-bottom 384-well Biocoat™ poly-D-lysine assay plates (BD Biosciences, Bedford, Mass.) using a Multidrop® dispenser (ThermoScientific, Waltham, Mass.). On the day of the experiment, growth medium was removed, and the no-wash FLIPR® Calcium-4 dye (λEX=470-495 nm, λEM=515-575 nm; Molecular Devices, Sunnyvale, Calif.) was added to each well using the Multidrop® dispenser. Cells were incubated for 90-120 minutes in the dark at room temperature. Test compounds were added to the cells 3 minutes prior to the addition of 200 nM capsaicin (4×), and the final assay volume was 80 μL. Fluorescence readings were made at 1 to 5 second intervals over the course of the experimental run. The peak increase in relative fluorescence units (minus baseline) was calculated, and expressed as a percentage of the 50 nM capsaicin (control) response.

T1 sequence (Q8NER1 whole entry): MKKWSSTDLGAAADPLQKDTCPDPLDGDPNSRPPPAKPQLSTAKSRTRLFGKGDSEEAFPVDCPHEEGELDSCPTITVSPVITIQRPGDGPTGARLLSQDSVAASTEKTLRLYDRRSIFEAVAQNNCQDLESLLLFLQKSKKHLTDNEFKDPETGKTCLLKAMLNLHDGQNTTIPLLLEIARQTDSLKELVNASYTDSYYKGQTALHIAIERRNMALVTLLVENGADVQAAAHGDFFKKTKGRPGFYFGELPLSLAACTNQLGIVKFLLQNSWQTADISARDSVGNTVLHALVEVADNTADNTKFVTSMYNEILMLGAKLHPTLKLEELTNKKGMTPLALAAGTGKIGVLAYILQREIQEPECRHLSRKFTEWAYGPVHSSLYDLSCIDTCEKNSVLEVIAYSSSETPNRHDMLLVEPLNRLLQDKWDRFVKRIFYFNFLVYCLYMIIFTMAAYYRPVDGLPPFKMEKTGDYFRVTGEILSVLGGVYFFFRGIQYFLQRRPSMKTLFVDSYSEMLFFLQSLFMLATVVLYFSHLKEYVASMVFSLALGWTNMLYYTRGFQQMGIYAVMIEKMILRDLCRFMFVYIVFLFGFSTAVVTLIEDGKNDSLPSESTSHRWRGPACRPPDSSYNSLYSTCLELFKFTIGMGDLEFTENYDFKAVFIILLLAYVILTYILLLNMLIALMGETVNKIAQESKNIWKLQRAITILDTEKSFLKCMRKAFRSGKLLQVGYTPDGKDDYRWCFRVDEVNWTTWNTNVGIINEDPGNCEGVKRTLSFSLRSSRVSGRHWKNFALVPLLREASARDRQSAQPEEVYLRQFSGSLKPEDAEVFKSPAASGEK

remaining activity at 37.5 µM [1] [%] | pIC50 [2] | hTRPV1 H+ (max % remain) [1] [%] | Compound
53 |  |  | O=C(Nc1cccc2[nH]ncc12)N[C@H]1CC[C@@H](c2ccccn2)C1 (relative stereo) [Example 38, 1-(1H-indazol-4-yl)-3-[cis-3-(pyridin-2-yl)cyclopentyl]urea]
33 |  |  | O=C(Nc1cccc2[nH]ncc12)N[C@H]1CC[C@H](c2ccccn2)C1 (relative stereo) [Example 39, 1-(1H-indazol-4-yl)-3-[trans-3-(pyridin-2-yl)cyclopentyl]urea]
 | 5.06 | 53 | O=C(Nc1cccc2[nH]ncc12)N[C@H]1CC[C@@](O)(c2ccccc2)C1 (relative stereo) [Example 58, 1-[(trans)-3-hydroxy-3-phenylcyclopentyl]-3-(1H-indazol-4-yl)urea]
18 |  |  | Cc1csc([C@H]2CC[C@H](NC(=O)Nc3cccc4[nH]ncc34)C2)n1 (relative stereo) [Example 119, 1-(1H-indazol-4-yl)-3-[(trans)-3-(4-methyl-1,3-thiazol-2-yl)cyclopentyl]urea]
6 |  |  | O=C(Nc1cccc2[nH]ncc12)N[C@@H]1CC[C@@H](c2nc(C(F)(F)F)cs2)C1 (relative stereo) [Example 129, 1-(1H-indazol-4-yl)-3-{(1R*,3R*)-3-[4-(trifluoromethyl)-1,3-thiazol-2-yl]cyclopentyl}urea]
5 |  |  | O=C(Nc1cccc2[nH]ncc12)N[C@@H]1CC[C@H](c2nc(C(F)(F)F)cs2)C1 (relative stereo) [Example 130, 1-(1H-indazol-4-yl)-3-{(1R*,3S*)-3-[4-(trifluoromethyl)-1,3-thiazol-2-yl]cyclopentyl}urea]
54 |  |  | Cc1csc([C@@H]2CC[C@H](NC(=O)Nc3cccc4[nH]ncc34)C2)n1 (single isomer, unassigned) [Example 120, 1-(1H-indazol-4-yl)-3-[(1S*,3R*)-3-(4-methyl-1,3-thiazol-2-yl)cyclopentyl]urea]
10 |  |  | Cc1csc([C@H]2CC[C@@H](NC(=O)Nc3cccc4[nH]ncc34)C2)n1 (single isomer, unassigned) [Example 121, 1-(1H-indazol-4-yl)-3-[(1R*,3S*)-3-(4-methyl-1,3-thiazol-2-yl)cyclopentyl]urea]
68 | 4.69 |  | Cc1coc([C@@H]2CC[C@H](NC(=O)Nc3cccc4[nH]ncc34)C2)n1 (single isomer, unassigned) [Example 122, 1-(1H-indazol-4-yl)-3-[(1S*,3R*)-3-(4-methyl-1,3-oxazol-2-yl)cyclopentyl]urea]
29 | 5.95 |  | Cc1coc([C@H]2CC[C@@H](NC(=O)Nc3cccc4[nH]ncc34)C2)n1 (single isomer, unassigned) [Example 123, 1-(1H-indazol-4-yl)-3-[(1R*,3S*)-3-(4-methyl-1,3-oxazol-2-yl)cyclopentyl]urea]
41 |  |  | Cc1cc2c(NC(=O)N[C@H]3CC[C@@H](c4ncc(C)o4)C3)c(F)ccc2cn1 (stereo in doubt) [Example 125, 1-(6-fluoro-3-methylisoquinolin-5-yl)-3-[(1S*,3R*)-3-(5-methyl-1,3-oxazol-2-yl)cyclopentyl]urea]
23 |  |  | Cc1cnc([C@@H]2CC[C@H](NC(=O)Nc3cccc4[nH]ncc34)C2)o1 (stereo in doubt) [Example 126, 1-(1H-indazol-4-yl)-3-[(1S*,3R*)-3-(5-methyl-1,3-oxazol-2-yl)cyclopentyl]urea]
54 |  |  | Cc1cc2c(NC(=O)N[C@@H]3CC[C@H](c4ncc(C)o4)C3)c(F)ccc2cn1 (stereo in doubt) [Example 127, 1-(6-fluoro-3-methylisoquinolin-5-yl)-3-[(1R*,3S*)-3-(5-methyl-1,3-oxazol-2-yl)cyclopentyl]urea]
54 |  |  | Cc1cnc([C@H]2CC[C@@H](NC(=O)Nc3cccc4[nH]ncc34)C2)o1 (stereo in doubt) [Example 128, 1-(1H-indazol-4-yl)-3-[(1R*,3S*)-3-(5-methyl-1,3-oxazol-2-yl)cyclopentyl]urea]
2 | 8.40 |  | O=C(Nc1cccc2c1C[C@H](O)CC2)N[C@H]1CC[C@H](c2ccccc2)C1 [Compound A, 1-[(7R)-7-hydroxy-5,6,7,8-tetrahydronaphthalen-1-yl]-3-[(1S,3S)-3-phenylcyclopentyl]urea, reference compound]
1 | 8.22 |  | O=C(Nc1cccc2c1C[C@@H](O)CC2)N[C@H]1CC[C@@H](c2ccccc2)C1 [Compound B, 1-[(7S)-7-hydroxy-5,6,7,8-tetrahydronaphthalen-1-yl]-3-[(1S,3R)-3-phenylcyclopentyl]urea, reference compound]
2 | 8.30 |  | O=C(Nc1cccc2c1C[C@@H](O)CC2)N[C@@H]1CC[C@H](c2ccccc2)C1 [Compound C, 1-[(7S)-7-hydroxy-5,6,7,8-tetrahydronaphthalen-1-yl]-3-[(1R,3S)-3-phenylcyclopentyl]urea, reference compound]
2 | 7.89 |  | O=C(Nc1cccc2c1C[C@@H](O)CC2)N[C@H]1CC[C@H](c2ccccc2)C1 [Compound D, 1-[(7S)-7-hydroxy-5,6,7,8-tetrahydronaphthalen-1-yl]-3-[(1S,3S)-3-phenylcyclopentyl]urea, reference compound]
1 | 8.30 |  | O=C(Nc1cccc2c1C[C@H](O)CC2)N[C@@H]1CC[C@@H](c2ccccc2)C1 [Compound E, 1-[(7R)-7-hydroxy-5,6,7,8-tetrahydronaphthalen-1-yl]-3-[(1R,3R)-3-phenylcyclopentyl]urea, reference compound]
6 | 8.30 |  | O=C(Nc1cccc2c1C[C@@H](O)CC2)N[C@@H]1CC[C@@H](c2ccccc2)C1 [Compound F, 1-[(7S)-7-hydroxy-5,6,7,8-tetrahydronaphthalen-1-yl]-3-[(1R,3R)-3-phenylcyclopentyl]urea, reference compound]
1 |  |  | O=C(Nc1cccc2[nH]ncc12)N[C@@H]1CCC(c2nc(C(F)(F)F)cs2)C1 (stereo partly drawn) [Example 131, 1-(1H-indazol-4-yl)-3-{(1R)-3-[4-(trifluoromethyl)-1,3-thiazol-2-yl]cyclopentyl}urea]
